Changes are numbered by the printed parent chain.
Key:
[1] = system: constitutively active pocket-filling mutants of PXR; experiment: antagonism of constitutively active pocket-filling mutants of PXR; format: cell-based; settings: double and triple mutant forms
PXR [2] = biological target: T1, PXR (Homo sapiens, UniProt O75469); settings: sustained for at least 48–72 hours; ref Fuchs et al., 2012; cited from earlier work
T1 sequence (O75469 1-434): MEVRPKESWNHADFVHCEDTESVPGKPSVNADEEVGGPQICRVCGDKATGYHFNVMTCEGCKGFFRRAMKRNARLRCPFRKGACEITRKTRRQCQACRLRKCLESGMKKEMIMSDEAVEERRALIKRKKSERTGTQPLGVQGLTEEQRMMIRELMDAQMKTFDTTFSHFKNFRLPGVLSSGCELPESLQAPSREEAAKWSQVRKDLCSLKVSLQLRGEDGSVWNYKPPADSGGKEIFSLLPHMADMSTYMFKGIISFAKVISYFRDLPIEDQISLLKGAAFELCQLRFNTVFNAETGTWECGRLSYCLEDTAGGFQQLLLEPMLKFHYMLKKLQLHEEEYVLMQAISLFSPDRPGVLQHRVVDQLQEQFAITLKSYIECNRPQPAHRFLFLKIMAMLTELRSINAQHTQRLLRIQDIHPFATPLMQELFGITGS

Q272H PXR = biological target: T2, Q272H PXR (Homo sapiens, UniProt O75469, Q272H); experiment: yeast two-hybrid screen of PXR mutants; format: cell-based; settings: Q272H mutation at the surface AF-2 site
T2 sequence (O75469 1-434 Q272H): T1 sequence (O75469 1-434) with Q272H

T248E/K277Q form of PXR = settings: ref Wang et al., 2007; cited from earlier work
PXR [3] = settings: ref Poulton et al., 2012; cited from earlier work
PXR LBD = settings: ref Xue et al., 2007; cited from earlier work

In the case of CC(=O)N1CCN(c2ccc(OCC3COC(Cn4ccnc4)(c4ccc(Cl)cc4Cl)O3)cc2)CC1 (stereo not drawn) [ketoconazole], the “antagonism of constitutively active pocket-filling PXR mutants” value [1] is listed as “still susceptible to antagonism”, the “concentration needed to antagonize PXR activation in vivo” value (PXR [2]) is listed as greater than 10 µM and the “sensitivity of Q272H PXR to the antagonist” value (Q272H PXR) is listed as “insensitive”. The “antagonism of double-mutant T248E/K277Q PXR” value (T248E/K277Q form of PXR) was “not susceptible to antagonism”.

For C[S+]([O-])CCCCN=C=S (stereo not drawn) [sulphoraphane, sulforaphane], the “effect in a humanized PXR mouse model” value (PXR [3]) is given as “absence of effect”.

For O=S(=O)(c1ccccc1)N(CC(F)(F)F)c1ccc(C(O)(C(F)(F)F)C(F)(F)F)cc1 [T1317, T0901317], the Kd (PXR LBD) is given as 11 nM.

Reference: article PMC3583015 (Drug metabolism reviews, 2013)
